Experimental data from US8686003B2, “Tissue non-specific alkaline phosphatase inhibitors and uses thereof for treating vascular calcification” (Sanford-Burnham Medical Research Institute, priority 2007, dated 2014).

Each molecule was assayed against T1, human TNAP (Homo sapiens, UniProt P05186) (assay: Enzyme kinetic experiments, Ki and mechanism of TNAP inhibition). Details: Tables D and E; pH not given; read-out: Ki.
T1 construct: made in house; host or cells: COS-1 cells, transient expression; dialyzed serum-free conditioned medium
T1 sequence (P05186 18-502 limits assumed): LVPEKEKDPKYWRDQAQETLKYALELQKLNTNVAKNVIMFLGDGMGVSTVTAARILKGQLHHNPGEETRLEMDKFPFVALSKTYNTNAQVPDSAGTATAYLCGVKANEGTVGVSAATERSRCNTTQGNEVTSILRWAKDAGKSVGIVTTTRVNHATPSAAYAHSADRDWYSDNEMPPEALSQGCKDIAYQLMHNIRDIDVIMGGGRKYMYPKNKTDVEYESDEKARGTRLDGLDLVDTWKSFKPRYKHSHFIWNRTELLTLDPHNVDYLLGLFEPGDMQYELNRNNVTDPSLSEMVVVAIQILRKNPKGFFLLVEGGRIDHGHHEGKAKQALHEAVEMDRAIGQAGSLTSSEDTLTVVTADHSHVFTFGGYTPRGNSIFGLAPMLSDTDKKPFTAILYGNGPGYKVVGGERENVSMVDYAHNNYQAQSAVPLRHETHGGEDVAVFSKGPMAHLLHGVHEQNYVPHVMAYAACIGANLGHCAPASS
Type: biochemical
Procedure: (§1) Expression plasmids containing a secreted epitope-tagged TNAP, PLAP and IAP were transfected into COS-1 cells for transient expression using a standard electroporation method. Medium was replaced to Opti-MEM 24 hours later, and the serum free media containing secreted proteins were collected 60 hours after electroporation. Conditioned medium was dialyzed against TBS containing 1 mM MgCl2 ad 20 μM ZnCl2 (to remove phosphate) and filtrated with a 2 μm cellulose acetate filter.
[…] TNAP, PLAP and IAP activities were adjusted to an approximate ΔA405 nm, equivalent to 1, measured after 30 min. Residual AP activity in the presence of inhibitors was expressed as percentage of the control activity. To investigate the mechanism of inhibition, double reciprocal plots of enzyme activity (expressed as mA405 nm min^−1) vs. substrate concentration were constructed, in the presence of various concentrations of added inhibitors (0-30 μM). The y-axis intercepts of the 1/v vs. 1/[S] plots, were then plotted vs. [I] to graphically extract Ki values as the x-intercept in this plot. […] Inhibitors were further tested and sorted based on their kinetic properties at pH 7.4 using PPi, the relevant natural substrate of TNAP. […] Amounts of released phosphate were measured using the Biomol Green Reagent (Biomol Research Laboratories, Inc., Plymouth Meeting, Pa.).

Ki	SMILES
5.6 µM	Cn1ccnc1Sc1nc(Nc2ccccc2)nc(Nc2ccccc2)n1 [Compound E1]

The molecules below were run against T2, tissue-nonspecific alkaline phosphatase (TNAP) (Homo sapiens, UniProt P05186) (assay: TNAP inhibition screening assay (colorimetric pNPP / luminescence CDP-star), IC50). Details: Tables A-H; tissue-nonspecific alkaline phosphatase inhibitors.
T2 construct: made in house; host or cells: COS-1 cells, transient expression; dialyzed serum-free conditioned medium
T2 sequence (P05186 18-502 limits assumed): T1 sequence (P05186 18-502 limits assumed)
Type: biochemical
Procedure: as §1
A TNAP stock solution was diluted 120-fold and about 12 ul of diluted TNAP solution were dispensed into 96 well microtiter plates with half area bottom (Costar, Corning, N.Y.) by an auto dispenser (Matrix, Hudson, N.H.). A robotic liquid handler, Biomek™ FX (Beckman Coulter, Fullerton, Calif.) dispensed about 2.5 μl of each compound (dissolved in 10% DMSO) from the library plates. Plates were incubated at room temperature for at least one hour to allow TNAP to interact with each compound prior to addition of about 10.5 μl substrate solution (1.19 mM pNPP). After about 30 minutes of incubation, A405 nm was measured with a microtiter plate reader, Analyst™ HT (Molecular Devices, Sunnyvale, Calif.). Both the enzyme (TNAP) and substrate (pNPP) solution were made in diethanolamine (DEA) buffers; the final reaction contains 1M DEA-HCl buffer, pH about 9.8, containing about 1 mM MgCl2 and about 20 μM ZnCl2.
Compound aliquots (4 uL @ 100 uM in 10% DMSO) were added with about 8 uL of TNAP working solution, prepared by 800-fold dilution of TNAP in 2.5-fold assay buffer (250 mM DEA, pH 9.8, 2.5 mM MgCl2, 0.05 mM ZnCl2). CDP-star substrate solution (about 8 uL of 125 uM in water) was added to each well. […] Plates (white 384-well small volume Greiner 784075) were incubated at room temperature for about 0.5 hour and luminescence signal was measured using an EnVision plate reader (PerkinElmer).

IC50	SMILES
0.68 µM	O=C(O)c1cc(-c2ccccc2Cl)n[nH]1 [Compound A1, 3-(2-chlorophenyl)-1H-pyrazole-5-carboxylic acid]
0.81 µM	COC(=O)c1cc(-c2c[nH]c3ccccc23)[nH]n1 [Compound A2, methyl 3-(1H-indol-3-yl)-1H-pyrazole-5-carboxylate]
0.95 µM	O=C(O)c1cc(-c2ccc(Cl)cc2)n[nH]1 [Compound A3, 3-(4-chlorophenyl)-1H-pyrazole-5-carboxylic acid]
0.97 µM	COC(=O)c1cc(-c2ccccc2)n[nH]1 [Compound A4, methyl 3-phenyl-1H-pyrazole-5-carboxylate]
3.24 µM	Oc1cc(-c2cccc3ccccc23)n[nH]1 [Compound A5, 3-(napthalen-1-yl)-1H-pyrazol-5-ol]
6.51 µM	Nc1[nH]nc(-c2ccc(Br)cc2)c1Cl [Compound A6, 3-(4-bromophenyl)-4-chloro-1-H-pyrazol-5-amine]
10.2 µM	Cn1cccc1-c1cc(C(=O)O)[nH]n1 [Compound A7, 3-(1-methyl-1H-pyrrol-2-yl)-1H-pyrazole-5-carboxylate]
0.31 µM	COC(=O)c1cc(-c2ccc(Br)cc2)n[nH]1 [Compound A8, methyl 3-(4-bromophenyl)-1H-pyrazole-5-carboxylate]
1.51 µM	CCCCc1[nH]nc2c1C(=O)CC(C)(C)C2 [Compound B1, 3-butyl-6,6-dimethyl-6,7-dihydro-2H-indazol-4(5H)-one]
3.67 µM	CC1(C)CC(=O)c2c(n[nH]c2-c2cccs2)C1 [Compound B2, 6,6-dimethyl-3-(thiophen-2-yl)-6,7-dihydro-2H-indazol-4(5H)-one]
0.57 µM	CC1(C)CC(=O)c2c(n[nH]c2Cc2ccccc2)C1 [Compound B3, 3-benzyl-6,6-dimethyl-6,7-dihydro-2H-indazol-4(5H)-one]
0.99 µM	Cc1cc(O)oc2nnc(-c3ccccc3)c1-2 [Compound B4, 4-methyl-3-phenylpyrano[2,3-c]pyrazol-6-ol]
1.35 µM	COc1ccc(-c2nnc3oc(O)cc(C)c2-3)cc1 [Compound B5, 3-(4-methoxyphenyl)-4-methylpyrano[2,3-c]pyrazol-6-ol]
5.25 µM	COCc1n[nH]c2c1C(c1cc(OC)c(O)c(OC)c1)C(C#N)=C(N)O2 (stereo not shown) [Compound B6, 6-amino-4-(4-hydroxy-3,5-dimethoxyphenyl)-3-(methoxymethyl)-1,4-dihydropyrano[2,3-c]pyrazole-5-carbonitrile]
9.43 µM	Cc1cc(NC(=O)COC(=O)c2[nH]nc3ccccc23)no1 [Compound B8, 2-(5-methylisoxazol-3-ylamino)-2-oxoethyl 2H-indazole-3-carboxylate]
0.32 µM	COc1ccc2c(c1)CCc1c-2n[nH]c1C(=O)O [Compound B9, 7-methoxy-4,5-dihydro-2H-benzo [g]indazole-3-carboxylic acid]
1.35 µM	O=C(O)c1[nH]nc2c1COc1ccccc1-2 [Compound B10, 2,4-dihydrochromeno[4,3-c]pyrazole-3-carboxylic acid]
3.4 µM	c1ccc(-c2n[nH]c3c2CCC3)cc1 [Compound B11, 3-phenyl-1,4,5,6-tetrahydrocyclopenta[c]pyrazole]
2.02 µM	Nc1nc(CSc2n[nH]c(-c3ccccc3)n2)nc(Nc2ccccc2)n1 [Compound C1, N^2-phenyl-6-[(5-phenyl-1H-1,2,4-triazol-3-ylthio)methyl]-1,3,5-triazine-2,4-diamine]
3.79 µM	COc1ccccc1-c1nnc(SCc2ccccn2)[nH]1 [Compound C2, 2-((5-(2-methoxyphenyl)-4H-1,2,4-triazol-3-ylthio)methyl)pyridine]
5.39 µM	CCOC(=O)c1sc(NC(=O)CSc2nnc(-c3ccccc3OC)[nH]2)c(C#N)c1C [Compound C3, ethyl 4-cyano-5-{2-[5-(2-methoxyphenyl)-4H-1,2,4-triazol-3-ylthio]acetamide}-3-methylthiophene-2-carboxylate]
2.54 µM	O=C(CSc1nnc(-c2ccccc2Br)[nH]1)NC(=O)NCc1ccco1 [Compound C4, 2-[5-(2-bromophenyl)-4H-1,2,4-triazol-3-ylthio]-N-(furan-2-ylmethylcarbamoyl)acetamide]
1.57 µM	O=C(CSc1nnc(-c2ccccc2)[nH]1)NC(=O)NCc1ccco1 [Compound C5, N-(furan-2-ylmethylcarbamoyl)-2-(5-phenyl-4H-1,2,4-triazol-3-ylthio)acetamide]
0.33 µM	O=C1C2CC=CCC2C(=O)N1c1nnc(Cc2ccccc2)[nH]1 (stereo not shown) [Compound E2]
0.68 µM	CCCSc1nnc(NC(C)=O)[nH]1 [Compound E3]

IC50	SMILES
1.06 µM	[H]/N=C(C)\C(C#N)=C(\O)CSc1nnc(-c2ccccc2Br)[nH]1 [Compound E4]
1.99 µM	COc1ccccc1-c1nnc(NC(C)=O)[nH]1 [Compound E5]
1.99 µM	COc1cc(CSc2nnc[nH]2)c(OC)cc1CSc1nnc[nH]1 [Compound E6]
2.39 µM	COc1cc(C(=O)Nc2cc(-c3ccccc3)n[nH]2)cc(OC)c1OC [Compound E7]
2.47 µM	Clc1ccccc1-c1n[nH]c(-c2ccccc2)n1 [Compound E8]
3.82 µM	COc1ccc(-c2nc3n(n2)C(=O)CC(c2ccco2)S3)cc1 (stereo not shown) [Compound E9]
3.94 µM	CCOC(=O)C1C(=O)Nc2nc3ccccc3n2C1C(C)C (stereo not shown) [Compound E10]
4.35 µM	C=CCSc1nc(-c2ccc(OC)cc2)n[nH]1 [Compound E11]
4.68 µM	COc1ccc(OC)c(C(=O)CSc2nc3ccc[nH]c-3n2)c1 [Compound E12]
5.34 µM	Oc1nc2cc(Cl)ccc2n1-c1ccccc1 [Compound E13]
5.83 µM	Cn1ncc2c1ncn1c(-c3ccccc3Cl)nnc21 [Compound E14]
6.26 µM	O=C(CSc1nc2ccc[nH]c-2n1)c1ccc(F)cc1 [Compound E15]
6.89 µM	Cc1cccc(C)c1OCc1nnc2c3cnn(C)c3ncn12 [Compound E16]
7.92 µM	Cc1ccc(-n2ccc3c2ncn2c(C)nnc32)cc1C [Compound E17]
10.3 µM	CC(C)C1N=C2c3ccccc3N=C(SCC(=O)c3ccc(O)c(O)c3)N2C1=O (stereo not shown) [Compound E18]
11.3 µM	Cc1ccsc1/C=c1\sc2ncnn2c1=O [Compound E19]
13 µM	Cc1nc2c3cnn(-c4ccc(C)c(C)c4)c3ncn2n1 [Compound E20]
16 µM	Cn1ncc2c1ncn1nc(CCc3ccccc3)nc21 [Compound E21]
9.5 µM	CC1(C)Cc2c(sc3cc4n(c(=N)c23)CCCCC4)CO1 [Compound E22]
0.75 µM	COc1ccc(C)cc1S(=O)(=O)Nc1cccnc1 [Compound F2]
1.93 µM	CCOc1ccc(C)cc1S(=O)(=O)Nc1cccnc1 [Compound F3]
8.45 µM	COc1ccc(OC)c(S(=O)(=O)Nc2ccc(O)c(Sc3nc[nH]n3)c2)c1 [Compound F4]
1.66 µM	O=P(O)(O)c1ccccc1OCCOCCOc1ccccc1P(=O)(O)O [Compound G1]
2.05 µM	O=P(O)(O)c1ccccc1OCCCCCOc1ccccc1P(=O)(O)O [Compound G2]
4.66 µM	O=C(CCCn1c(SCC(=O)c2ccc(O)c(O)c2)nc2ccccc2c1=O)NCC1CCCO1 (stereo not shown) [Compound H1]

SMILES	IC50
N#C/C(=C\c1ccc(O)c(O)c1)C(=O)NCCCc1ccccc1 [Compound H2]	5.16 µM
